{"source": "paper PMC10460880", "about": "“Cathepsin K‐Activated Probe for Fluoro‐Photoacoustic Imaging of Early Osteolytic Metastasis” (Advanced Science, 2023)", "key": {"OCs": {"test_system": "OCs", "test": "Cell selectivity experiment, osteoclasts", "assay_type": "cell-based", "conditions": "n = 3"}, "[1]": {"test_system": "CTSK-overexpressing OCs on calf bone slice", "test": "In vitro bone resorption imaging assay", "assay_type": "cell-based, C57BL/6J mice", "conditions": "2-CP 50 mM, 37 °C, 30 min, then CTSK-APPA 5 μM, 2 h", "procedure": "PS. RAW 264.7 cells and BMMs were maintained in an atmosphere of 5% CO2 and 95% humidified air at 37 °C. The medium was changed every day.\nCell cytotoxicity assay. MDA-MB-231/Luc and RAW 264.7 cells were seeded in 96-well plates (5×10^3 cells per well) for 24 h and then incubated with CTSK-APPA or CTSK-APP (5, 10, 20, 50 μM) or saline for 24 h. The medium was removed and cells were incubated with CCK-8 (0.5 mg/mL) for another 1 h. The absorbance of the mixture at 450 nm was measured by using a microplate reader. Cell viability was expressed by the ratio of the absorbance of the cells incubated with the probes to that of the cells incubated with culture medium only.\nIn vitro osteoclast differentiation. Bone marrow-derived macrophages were isolated from the femurs and tibias of 4-week-old C57BL/6J mice and cultured in a complete medium containing M-CSF (30 ng/mL) for 4 days. BMMs were harvested to the 24-well plates (1×10^4 per well) and cultured in the complete medium containing M-CSF (30 ng/mL) and RANKL (100 ng/mL) for another 4 days. The osteoclasts were fixed and stained by using acid phosphatase and a leukocyte kit according to the manufacturer’s procedures.\nIn vitro bone resorption imaging assay. […]\nFluorescence images were captured by using the IVIS Spectrum imaging system with excitation […]"}, "[2]": {"test_system": "MDA-MB-231/Luc-induced osteolytic metastasis", "test": "Real-time NIR fluorescence and PA imaging of osteolytic metastasis", "assay_type": "in vivo, BALB/c nude mice", "conditions": "2-CP 50 mM, 200 μL, 1 h before probe; n = 3", "procedure": "page 5: PS. RAW 264.7 cells and BMMs were maintained in an atmosphere of 5% CO2 and 95% humidified air at 37 °C. The medium was changed every day. Cell cytotoxicity assay. MDA-MB-231/Luc and RAW 264.7 cells were seeded in 96-well plates (5×10^3 cells per well) for 24 h and then incubated with CTSK-APPA or CTSK-APP (5, 10, 20, 50 μM) or saline for 24 h. The medium was removed and cells were incubated with CCK-8 (0.5 mg/mL) for another 1 h. The absorbance of the mixture at 450 nm was measured by using a microplate reader. Cell viability was expressed by the ratio of the absorbance of the cells incubated with the probes to that of the cells incubated with culture medium only. In vitro osteoclast differentiation. Bone marrow-derived macrophages were isolated from the femurs and tibias of 4-week-old C57BL/6J mice and cultured in a complete medium containing M-CSF (30 ng/mL) for 4 days. […] Fluorescence images were captured by using the IVIS Spectrum imaging system with excitation at 660 ± 10 nm and emission at 710 ± 10 nm. […] The bone marrow toxicity of CTSK-APPA and CTSK-APP was assessed by blood analyses in mice. […] The red blood count (RBC) and white blood count (WBC) were further measured. […] The supernatants containing excreted probes were quantified by using a UV-vis absorption spectrometer. […]"}}}
{"smiles": "N#Cc1ncccn1", "note": "[Probe 2-CP, 2-Cyanopyrimidine, reference compound]", "values": [{"measurement": "effect of inhibitor on CTSK-APPA fluorescence in OCs", "setting": "OCs", "result": "effectively reduced"}, {"measurement": "effect of inhibitor pre-treatment on CTSK-APPA fluorescence of bone-resorption slice", "setting": "[1]", "result": "remarkably suppressed NIR fluorescence"}, {"measurement": "effect of preinjected inhibitor on NIR fluorescence and PA signals of CTSK-APPA", "setting": "[2]", "result": "reduced to the CTSK‐APP levels"}]}
